Data on 21 compounds can be found in patent US10450316B2, “Certain protein kinase inhibitor” (Chongqing Fochon Pharmaceutical Co., Ltd., priority 2015, dated 2019).

The assay has as its system BE(2)-C cell. The assay can be described thus: Cell proliferation assay (MTS) in BE(2)-C cells. As to conditions: Homo sapiens, inhibition of BE(2)-C cell proliferation, 48 h. Format: cell-based. How it is done: MTS testing kit was purchased from Promega. The DMEM, Fetal bovine serum and Penicillin-Streptomycin were purchased from Gibco. Dimethyl sulfoxide (DMSO) was purchased from Sigma.
To investigate whether a compound is able to inhibit the activity of CDK4/6 in cells, mechanism-based assays using BE(2)-C cell (ATCC® number:CRL-2268) were developed. In the assay, inhibition of CDK4/6 was detected by the inhibition of BE(2)-C cell cells proliferation. BE(2)-C cell cells were cultured in culture flasks to 40-80% confluence in DMEM plus 10% fetal bovine serum. Cells were collected and plated onto 96-well plates at cell density of 3000 cells/well. Plates were incubated overnight at 37° C., with 5% CO2 to adhere. Compounds were added to the plates, the final compound concentrations were 10000, 3333, 1111, […], 123.5, 41.2, 13.7, 4.6 and 1.5 nM. Place plates at 37° C., with 5% CO2 for 48 h. After removing the medium, 20 μl MTS/100 μl medium mixture solution were added to each well and incubate the plates for exactly 2 hours. The reaction was terminated by adding 25 μl 10% SDS per well. Measure absorbance at 490 nm and 650 nm (reference wavelength). IC50 was calculated using GraphPad Prism 5.0.
Select compounds prepared as described above were assayed according to the biological procedures described herein. “++++” stands for IC50 value below about 10 nM. “+++” stands for IC50 value between greater than about 10 nM to about 100 nM. “++” stands for IC50 value between greater than about 100 nM to about […]. “+” stands for IC50 value greater than 1 μM.

In turn, `CN1C[C@@H]2C[C@H]1CN2Cc1ccc(Nc2ncc(F)c(-c3cc(F)c4nc5n(c4c3)C3(CC5)CC3)n2)nc1` [Example 136, 5-fluoro-4-(5-fluoro-2,3-dihydrospiro[benzo[d]pyrrolo[1,2-a]imidazole-1,1′-cyclopropan]-7-yl)-N-(5-(((1S,4S)-5-methyl-2,5-diazabicyclo[2.2.1]heptan-2-yl)methyl)pyridin-2-yl)pyrimidin-2-amine] yielded a 50% inhibitory concentration (IC50) greater than 100 nM. Compound `Fc1cnc(Nc2ccc(CN3CCC4(CC3)CNC4)cn2)nc1-c1cc(F)c2nc3n(c2c1)[C@H](C(F)(F)F)CC3` [Example 64, (S)-N-(5-((2,7-diazaspiro[3.5]nonan-7-yl)methyl)pyridin-2-yl)-5-fluoro-4-(5-fluoro-1-(trifluoro-methyl)-2,3-dihydro-1H-benzo[d]pyrrolo[1,2-a]imidazol-7-yl)pyrimidin-2-amine] showed an IC50 greater than 100 nM. Turning to `CC1(C)CCc2nc3c(F)cc(-c4nc(Nc5ccc(CN6CC7(CCNCC7)C6)cn5)ncc4F)cc3n21` [Example 111, N-(5-((2,7-diazaspiro[3.5]nonan-2-yl)methyl)pyridin-2-yl)-5-fluoro-4-(5-fluoro-1,1-dimethyl-2,3-dihydro-1H-benzo[d]pyrrolo[1,2-a]imidazol-7-yl)pyrimidin-2-amine], the IC50 was greater than 100 nM. In turn, `CCN1C[C@@]2(C)CN(Cc3ccc(Nc4ncc(F)c(-c5cc(F)c6nc7n(c6c5)C5(CC7)CC5)n4)nc3)C[C@@]2(C)C1` [Example 140, N-(5-(((3aR,6aS)-5-ethyl-3a,6a-dimethyl-hexahydropyrrolo[3,4-c]pyrrol-2(1H)-yl)methyl)pyridin-2-yl)-5-fluoro-4-(5-fluoro-2,3-dihydro-spiro[benzo[d]pyrrolo[1,2-a]imidazole-1,1′-cyclopropan]-7-yl)pyrimidin-2-amine] came in with an IC50 greater than 100 nM. In the case of `Fc1cnc(Nc2ccc(CN3CC4(CCNCC4)C3)cn2)nc1-c1cc(F)c2nc3n(c2c1)[C@H](C(F)F)CC3` [Example 42, (S)-N-(5-((2,7-diazaspiro[3.5]nonan-2-yl)methyl)pyridin-2-yl)-4-(1-(difluoromethyl)-5-fluoro-2,3-dihydro-1H-benzo[d]pyrrolo[1,2-a]imidazol-7-yl)-5-fluoropyrimidin-2-amine] it was greater than 100 nM; in that of `CC1(C)CCc2nc3c(F)cc(-c4nc(Nc5ccc(CN6CC7CNCC7C6)cn5)ncc4F)cc3n21` (stereo not drawn) [Example 123, 5-fluoro-4-(5-fluoro-1,1-dimethyl-2,3-dihydro-1H-benzo[d]pyrrolo[1,2-a]imidazol-7-yl)-N-(5-((hexahydropyrrolo[3,4-c]pyrrol-2(1H)-yl)methyl)pyridin-2-yl)pyrimidin-2-amine], greater than 100 nM. In turn, `CCN1CCC2(CC1)CCN(Cc1ccc(Nc3ncc(F)c(-c4cc(F)c5nc6n(c5c4)[C@H](CF)CC6)n3)nc1)CC2` [Example 31, (S)-N-(5-((9-ethyl-3,9-diazaspiro[5.5]undecan-3-yl)methyl)pyridin-2-yl)-5-fluoro-4-(5-fluoro-1-(fluoromethyl)-2,3-dihydro-1H-benzo[d]pyrrolo[1,2-a]imidazol-7-yl)pyrimidin-2-amine] yielded an IC50 greater than 100 nM.

In turn, `CCN1C2CCC1CN(Cc1ccc(Nc3ncc(F)c(-c4cc(F)c5nc6n(c5c4)[C@H](C)CC6)n3)nc1)C2` [Example 106, N-(5-((8-ethyl-3,8-diazabicyclo[3.2.1]octan-3-yl)methyl)pyridin-2-yl)-5-fluoro-4-((R)-5-fluoro-1-methyl-2,3-dihydro-1H-benzo[d]pyrrolo[1,2-a]imidazol-7-yl)pyrimidin-2-amine] displayed an IC50 of 10 to 100 nM. On to `CCN1CC2CN(Cc3ccc(Nc4ncc(F)c(-c5cc(F)c6nc7n(c6c5)[C@H](CF)CC7)n4)nc3)CC2C1` (stereo partly drawn) [Example 28, N-(5-((5-ethylhexahydropyrrolo[3,4-c]pyrrol-2(1H)-yl)methyl)pyridin-2-yl)-5-fluoro-4-((S)-5-fluoro-1-(fluoromethyl)-2,3-dihydro-1H-benzo[d]pyrrolo[1,2-a]imidazol-7-yl)pyrimidin-2-amine], for which the IC50 lay in the range of 10 to 100 nM. The compound `CCN1CC2CCC(C1)N2Cc1ccc(Nc2ncc(F)c(-c3cc(F)c4nc5n(c4c3)[C@H](C(F)(F)F)CC5)n2)nc1` [Example 78, N-(5-((3-ethyl-3,8-diazabicyclo[3.2.1]octan-8-yl)methyl)pyridin-2-yl)-5-fluoro-4-((S)-5-fluoro-1-(trifluoromethyl)-2,3-dihydro-1H-benzo[d]pyrrolo [1,2-a]imidazol-7-yl)pyrimidin-2-amine] came in with an IC50 of 10 to 100 nM.

As for `CN1CCC2(CC1)CN(Cc1ccc(Nc3ncc(F)c(-c4cc(F)c5nc6n(c5c4)[C@H](C(F)(F)F)CC6)n3)nc1)C2` [Example 62, (S)-5-fluoro-4-(5-fluoro-1-(trifluoromethyl)-2,3-dihydro-1H-benzo[d]pyrrolo[1,2-a]imidazol-7-yl)-N-(5-((7-methyl-2,7-diazaspiro[3.5]nonan-2-yl)methyl)pyridin-2-yl)pyrimidin-2-amine], the IC50 was in the range of 10 to 100 nM. For `Fc1cnc(Nc2ccc(CN3CCC4(CCNCC4)CC3)cn2)nc1-c1cc(F)c2nc3n(c2c1)[C@H](C(F)F)CC3` [Example 51, (S)-N-(5-((3,9-diazaspiro[5.5]undecan-3-yl)methyl)pyridin-2-yl)-4-(1-(difluoromethyl)-5-fluoro-2,3-dihydro-1H-benzo[d]pyrrolo[1,2-a]imidazol-7-yl)-5-fluoropyrimidin-2-amine], the IC50 is greater than 100 nM. To `Fc1cnc(Nc2ccc(CN3CC4CNCC4C3)cn2)nc1-c1cc(F)c2nc3n(c2c1)[C@H](C(F)F)CC3` (stereo partly drawn) [Example 48, 4-((S)-1-(difluoromethyl)-5-fluoro-2,3-dihydro-1H-benzo[d]pyrrolo[1,2-a]imidazol-7-yl)-5-fluoro-N-(5-((hexahydropyrrolo[3,4-c]pyrrol-2(1H)-yl)methyl)pyridin-2-yl)pyrimidin-2-amine] belongs greater than 100 nM; to `CN1C2CCC1CN(Cc1ccc(Nc3ncc(F)c(-c4cc(F)c5nc6n(c5c4)[C@H](CF)CC6)n3)nc1)C2` [Example 36, 5-fluoro-4-((5)-5-fluoro-1-(fluoromethyl)-2,3-dihydro-1H-benzo[d]pyrrolo[1,2-a]imidazol-7-yl)-N-(5-((8-methyl-3,8-diazabicyclo[3.2.1]octan-3-yl)methyl)pyridin-2-yl)pyrimidin-2-amine], greater than 100 nM; to `CCN1CCN(Cc2ccc(Nc3ncc(F)c(-c4cc(F)c5nc6n(c5c4)[C@H](CO)CC6)n3)nc2)CC1` [Example 3, (S)-(7-(2-((5-((4-ethylpiperazin-1-yl)methyl)pyridin-2-yl)amino)-5-fluoropyrimidin-4-yl)-5-fluoro-2,3-dihydro-1H-benzo[d]pyrrolo[1,2-a]imidazol-1-yl) methanol], greater than 100 nM. To `CN1CC2(C1)CN(Cc1ccc(Nc3ncc(F)c(-c4cc(F)c5nc6n(c5c4)[C@H](C(F)F)CC6)n3)nc1)C2` [Example 46, (S)-4-(1-(difluoromethyl)-5-fluoro-2,3-dihydro-1H-benzo[d]pyrrolo[1,2-a]imidazol-7-yl)-5-fluoro-N-(5-((6-methyl-2,6-diazaspiro[3.3]heptan-2-yl)methyl)pyridin-2-yl)pyrimidin-2-amine] belongs 10 to 100 nM; to `CN1CCC2(CC1)CN(Cc1ccc(Nc3ncc(F)c(-c4cc(F)c5nc6n(c5c4)[C@H](CF)CC6)n3)nc1)C2` [Example 21, (S)-5-fluoro-4-(5-fluoro-1-(fluoromethyl)-2,3-dihydro-1H-benzo[d]pyrrolo[1,2-a]imidazol-7-yl)-N-(5-((7-methyl-2,7-diazaspiro[3.5]nonan-2-yl)methyl)pyridin-2-yl)pyrimidin-2-amine], greater than 100 nM; to `CN1CC2CN(Cc3ccc(Nc4ncc(F)c(-c5cc(F)c6nc7n(c6c5)[C@H](C(F)(F)F)CC7)n4)nc3)CC2C1` (stereo partly drawn) [Example 74, 5-fluoro-4-((S)-5-fluoro-1-(trifluoromethyl)-2,3-dihydro-1H-benzo[d]pyrrolo[1,2-a]imidazol-7-yl)-N-(5-((5-methylhexahydropyrrolo[3,4-c]pyrrol-2(1H)-yl)methyl)pyridin-2-yl)pyrimidin-2-amine], 10 to 100 nM. `CN1CCC2(CC1)CCN(Cc1ccc(Nc3ncc(F)c(-c4cc(F)c5nc6n(c5c4)[C@H](C(F)(F)F)CC6)n3)nc1)CC2` [Example 71, (S)-5-fluoro-4-(5-fluoro-1-(trifluoromethyl)-2,3-dihydro-1H-benzo[d]pyrrolo[1,2-a]imidazol-7-yl)-N-(5-((9-methyl-3,9-diazaspiro[5.5]undecan-3-yl)methyl)pyridin-2-yl)pyrimidin-2-amine] yielded an IC50 of 10 to 100 nM.

`Fc1cnc(Nc2ccc(CN3CCNCC3)cn2)nc1-c1cc(F)c2nc3n(c2c1)[C@H](C(F)(F)F)CC3` [Example 16, (S)-5-fluoro-4-(5-fluoro-1-(trifluoromethyl)-2,3-dihydro-1H-benzo[d]pyrrolo[1,2-a]imidazol-7-yl)-N-(5-(piperazin-1-ylmethyl)pyridin-2-yl)pyrimidin-2-amine] registered an IC50 of 10 to 100 nM.

As for `Fc1cnc(Nc2ccc(CN3CC4CCC(C3)N4)cn2)nc1-c1cc(F)c2nc3n(c2c1)[C@H](C(F)(F)F)CC3` [Example 79, N-(5-((3,8-diazabicyclo[3.2.1]octan-3-yl)methyl)pyridin-2-yl)-5-fluoro-4-((S)-5-fluoro-1-(trifluoro-methyl)-2,3-dihydro-1H-benzo[d]pyrrolo[1,2-a]imidazol-7-yl)pyrimidin-2-amine], the IC50 was 10 to 100 nM.
